Results taken from patent publication US6902881B2, “Compounds and methods for regulating cell differentiation” (priority 2000, dated 2005).

Columns and labels:
T-lymphoblast (LT) cells = assay: Proliferation of T-lymphoblast cells; format: cell-based, mouse
[1] = tested on: Normal Fibroblast (3T3-L1 fibroblasts); assay: Cellular triacyl glycerol (TAG) content, normal fibroblast; format: cell-based; conditions: 3T3-L1 fibroblasts with insulin
Protocol: Expression of differentiation markers. Carcinoembryogenic antigen in cell supernatants collected each three days was assayed by standard ELISA determinations using an IMX assay for quantitative measurement of the antigen. Cellular triacyl glycerol content was measured spectrophotometrically by enzymatic hydrolysis and analysis of the amount of glycerol released using a standard assay, Triglyceride (INT) 10 (Sigma Diagnostics). […] The fluorescence is detected at 450 nm with an excitation of 365 nm, using a Jobin Ivon-Spex Fluoro Max-2 fluorimeter. The alkaline phosphatase activity detected was expressed in units of μmol/mg protein/min. These compounds also affect the timing for the fat accumulation. After 9 days of incubation with insulin and bovine pituitary extract, but without biliverdin, the fat droplets in the cells are small and scattered diffusely throughout the cell. These globules continue to enlarge to fill most of the cytoplasmic space by day 14. In contrast, by day 7 the cells incubated in the presence of biliverdin already contain large, grouped and prominent droplets. While the triacyl glycerol content increases in both HT 29 and liposarcoma cells, the fat droplets in HT 29 cells are smaller than those that fill the cytoplasm of the liposarcoma cells. 3T3-L1 fibroblasts differentiate into adipocytes in the presence of insulin (Table VII). In the absence of biliverdin, this hormone increases the triacylglycerol content of 3T3-L1 fibroblasts by 3-fold relative to control. When biliverdin is added, a progressively greater content of triacyl glycerol is achieved at day 9. The increase is dependent on the biliverdin concentration. At the highest concentration used, 4×10^−7 M, there is a 5.8-fold increase of triacyl glycerol content over that of the undifferentiated fibroblasts (Table VII). This almost doubles the amount in the cells incubated with differentiation medium alone and is nearly as high as observed with troglitazone. At a lower biliverdin concentration, 10^−8 M, there is a 3.5-fold increase compared to control values. Remarkably, the amounts of biliverdin required to achieve the effects on proliferation, cell cycle and differentiation marker up-regulation, i.e. 10^−7-10^−06 M, are the same as those needed to re-establish the capacity of embryos depleted of the tetrapyrrole by treatment with UV-light to form a dorsal axis.

[2] = Photo transformation of biliverdin by UV irradiation of embryos (HPLC peak area); format: physicochemical, Xenopus laevis
Protocol: The cytoplasmic yolk platelet fraction that was photo transformed by UV light was identified in extracts of about 250 embryos irradiated with 366 nm UV light. The chromatogram of irradiated embryo extracts was compared to that of the non-irradiated ones to identify the photo transformed fraction. Once the retention time of the UV sensitive fraction was determined, the parent chemical species was isolated from control egg extracts. To confirm its UV sensitivity, an aliquot of the pertinent HPLC fraction in 44% acetonitrile and 3 mM ammonium acetate, pH 4.5, was irradiated in a cuvette in a Varian-Cary Bio 50 spectrophotometer at 366 nm. The pH was chosen to approximate that of intact yolk platelets. The wavelength was selected on the basis of the absorption spectra of the target fraction. The absorbance change was monitored at 375 nm. […]
After UV irradiation, a set of embryos from each group were collected, dejellied with 2% L-cysteine, 0.16M NaOH and washed extensively in 20% Steimberg's buffer. […] The bilins and retinoids in each batch were extracted, separated and analyzed as described. […] The gross morphological appearance of each individual embryo was evaluated by light microscopy. The developmental teratology characteristic of the “UV syndrome,” was scored by standard criteria and categorized into the five groups comprising the “index of axis deficiency”. […]

[3] = tested on: alkaline phosphatase activity in HT 29 cells; assay: Cellular alkaline phosphatase activity of HT 29 cells; format: cell-based, human; conditions: HT 29, by day 20 of incubation
Protocol: Expression of differentiation markers. Carcinoembryogenic antigen in cell supernatants collected each three days was assayed by standard ELISA determinations using an IMX assay for quantitative measurement of the antigen. Cellular triacyl glycerol content was measured spectrophotometrically by enzymatic hydrolysis and analysis of the amount of glycerol released using a standard assay, Triglyceride (INT) 10 (Sigma Diagnostics). […] The fluorescence is detected at 450 nm with an excitation of 365 nm, using a Jobin Ivon-Spex Fluoro Max-2 fluorimeter. The alkaline phosphatase activity detected was expressed in units of μmol/mg protein/min. Alkaline phosphatase activity was assayed at the same periods as above but with different sets of cells. Treated and control cells were detached with trypsin and counted. One half of the cells were used to maintain the culture while the other half were used to measure alkaline phosphatase activity. […] Absorbance was detected at […] on a Varian Cary UV-Visible Spectrophotometer. The absorbance was compared against a standard curve created with bovine serum albumin from 2.5 to 25 μg/ml. […] The fluorescence generated is detected at 450 nm with an excitation of 365 nm, using a Jobin Ivon-Spex Fluoro Max-2 fluorimeter. […] The alkaline phosphatase actively detected was expressed in units of μmol product/mg protein/min.

share of the 23.3 min peak area photo transformed by UV irradiation ([2]; embryos irradiated with 366 nm UV light, typical experiment): > 67%
decrease of content after UV irradiation ([2]; pre-cleavage embryos exposed to 358 nm for 10 min): 50%
SMILES: C=CC1=C(C)/C(=C/C2=NC(=C\c3[nH]c(/C=C4\NC(=O)C(C)=C4C=C)c(C)c3CCC(=O)O)/C(CCC(=O)O)=C2C)NC1=O [Biliverdin, biliverdin IXα]
time until proliferation ceases (T-lymphoblast (LT) cells): within one day
time until cell division resumes at nearly the control rate (T-lymphoblast (LT) cells; still exposed): 3 to 4 days
increase of triacyl glycerol content over undifferentiated fibroblasts ([1]; biliverdin 4×10^−7 M, day 9): 5.8 fold
increase of triacyl glycerol content compared to control values ([1]; biliverdin 10^−8 M): 3.5 fold
peak increase of alkaline phosphatase activity [3]: fifteen-fold
